Data: US4346094A, “3-Aryl-5-isothiazolecarboxylic acids and related compounds used to lower uric acid levels” (Eli Lilly and Company, priority 1980, dated 1982)

Target: T1, xanthine oxidase (Bos taurus, UniProt P80457)
T1 construct: purchased Sigma Chemical Company, St. Louis, Mo; host or cells: milk (grade III, chromatographically purified)
Assay: in vitro xanthine oxidase assay (rate of uric acid formation from xanthine)
Type: biochemical
Settings: not given
Protocol: Since uric acid is produced by the oxidation of, first, hypoxanthine to xanthine and, second, of xanthine to uric acid via the enzyme, xanthine oxidase, an inhibitor of xanthine oxidase in vivo would obviously decrease the uric acid concentrations in the blood.
Xanthine oxidase activity was measured at room temperature by the rate of uric acid formation from xanthine substrate. In a total volume of 1 ml., the incubation mixture contained 50 micromoles of potassium phosphate buffer at pH 7.4, 0.05 micromoles of xanthine and 0.01 units of enzyme preparation (chromatographically purified milk xanthine oxidase, grade III, obtained from Sigma Chemical Company, St. Louis, Mo.). The absorbence change at 292 nm was recorded by a Gilford recording spectrophotometer and the uric acid formed was calculated using an extinction coefficient of 12 mM^-1 Cm^-1 at 292 nm.

T1 sequence (P80457 whole entry): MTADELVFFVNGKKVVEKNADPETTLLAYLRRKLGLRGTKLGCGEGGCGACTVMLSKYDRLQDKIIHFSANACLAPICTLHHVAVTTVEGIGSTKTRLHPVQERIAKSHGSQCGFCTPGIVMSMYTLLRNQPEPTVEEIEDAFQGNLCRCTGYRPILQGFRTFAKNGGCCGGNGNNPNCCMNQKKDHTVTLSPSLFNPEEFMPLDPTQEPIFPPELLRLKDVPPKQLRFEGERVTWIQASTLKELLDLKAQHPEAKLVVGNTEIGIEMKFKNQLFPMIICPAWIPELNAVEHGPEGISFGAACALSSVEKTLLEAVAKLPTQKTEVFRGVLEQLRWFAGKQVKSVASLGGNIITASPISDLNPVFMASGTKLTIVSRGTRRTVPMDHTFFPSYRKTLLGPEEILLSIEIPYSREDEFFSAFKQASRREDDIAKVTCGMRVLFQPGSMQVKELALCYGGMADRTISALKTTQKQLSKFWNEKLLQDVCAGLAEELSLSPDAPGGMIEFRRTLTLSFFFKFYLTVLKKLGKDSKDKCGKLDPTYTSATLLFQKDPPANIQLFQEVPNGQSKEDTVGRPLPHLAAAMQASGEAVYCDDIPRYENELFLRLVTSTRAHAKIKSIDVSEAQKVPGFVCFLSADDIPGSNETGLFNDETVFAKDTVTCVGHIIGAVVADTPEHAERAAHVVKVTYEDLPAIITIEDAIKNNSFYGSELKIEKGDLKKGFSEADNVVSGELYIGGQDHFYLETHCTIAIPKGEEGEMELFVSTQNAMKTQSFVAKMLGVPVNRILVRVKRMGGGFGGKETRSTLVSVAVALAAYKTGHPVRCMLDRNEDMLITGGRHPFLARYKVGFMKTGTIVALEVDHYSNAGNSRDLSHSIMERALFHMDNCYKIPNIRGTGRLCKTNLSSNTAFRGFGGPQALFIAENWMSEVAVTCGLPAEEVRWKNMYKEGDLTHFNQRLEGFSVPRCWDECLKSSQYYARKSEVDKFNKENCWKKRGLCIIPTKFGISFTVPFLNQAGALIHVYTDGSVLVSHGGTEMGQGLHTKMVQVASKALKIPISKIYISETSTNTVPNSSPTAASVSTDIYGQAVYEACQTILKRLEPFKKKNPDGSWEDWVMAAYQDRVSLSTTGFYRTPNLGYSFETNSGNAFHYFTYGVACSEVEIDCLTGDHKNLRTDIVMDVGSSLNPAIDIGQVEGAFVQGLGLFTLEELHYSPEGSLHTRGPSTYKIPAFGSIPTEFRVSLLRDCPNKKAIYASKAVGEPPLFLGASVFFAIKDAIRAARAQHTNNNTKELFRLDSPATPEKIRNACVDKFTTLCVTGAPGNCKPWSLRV

SMILES	IC50
O=C(O)c1snc(-c2cccc(C(F)(F)F)c2)c1I [R=3-CF3, X=I, 3-(3-trifluoromethylphenyl)-4-iodo-5-isothiazolecarboxylic acid]	238 nM
O=C(O)c1snc(-c2cccc(Cl)c2)c1Cl [R=3-Cl, X=Cl, 3-(3-chlorophenyl)-4-chloro-5-isothiazolecarboxylic acid]	69.3 nM
O=C(O)c1snc(-c2ccc(Cl)cc2)c1Br [R=4-Cl, X=Br, 3-(4-chlorophenyl)-4-bromo-5-isothiazolecarboxylic acid]	314 nM

Same assay, conditions: milk xanthine oxidase 0.01 units, 0.05 micromoles xanthine in 1 ml, pH 7.4, room temperature, 292 nm; read-out: I50 (concentration of drug which inhibits 50% of the oxidation of xanthine to uric acid by the xanthine oxidase preparation) (converted)

SMILES	IC50
Nc1c(-c2ccc3c(c2)OCO3)nsc1C(=O)O [3,4-methylenedioxy, 3-(1,3-benzodioxyl-5-yl)-4-amino-5-isothiazolecarboxylic acid]	492 nM
Nc1c(-c2cccs2)nsc1C(=O)O [Ar=2-thienyl, 3-(2-thienyl)-4-amino-5-isothiazolecarboxylic acid]	3310 nM
Nc1c(-c2cccnc2)nsc1C(=O)O [Ar=3-pyridinyl, 3-(3-pyridyl)-4-amino-5-isothiazolecarboxylic acid]	1490 nM
O=C(O)c1snc(-c2cccc(C(F)(F)F)c2)c1F [R=3-CF3, X=F, 3-(3-trifluoromethylphenyl)-4-fluoro-5-isothiazolecarboxylic acid]	68.7 nM
CNc1c(-c2cccc(C(F)(F)F)c2)nsc1C(=O)O [R=3-CF3, X=NHCH3, 3-(3-trifluoromethylphenyl)-4-methylamino-5-isothiazolecarboxylic acid]	562 nM
COc1ccc(-c2nsc(C(=O)O)c2N)cc1C [R=3-CH3, R^1=4-OCH3, 3-(4-methoxy-3-methylphenyl)-4-amino-5-isothiazolecarboxylic acid]	151 nM
Cc1cccc(-c2nsc(C(=O)O)c2N)c1 [R=3-CH3, R^1=H, 3-(3-tolyl)-4-amino-5-isothiazolecarboxylic acid]	640 nM
Cc1cccc(-c2nsc(C(=O)O)c2Cl)c1 [R=3-CH3, X=Cl, 3-(3-tolyl)-4-chloro-5-isothiazolecarboxylic acid]	134 nM
Nc1c(-c2ccc(Cl)c(Cl)c2)nsc1C(=O)O [R=3-Cl, R^1=4-Cl, 3-(3,4-dichlorophenyl)-4-amino-5-isothiazolecarboxylic acid]	214 nM
Nc1c(-c2cccc(Cl)c2)nsc1C(=O)O [R=3-Cl, R^1=H, 3-(3-chlorophenyl)-4-amino-5-isothiazolecarboxylic acid]	267 nM
O=C(O)c1snc(-c2cccc(Cl)c2)c1Br [R=3-Cl, X=Br, 3-(3-chlorophenyl)-4-bromo-5-isothiazolecarboxylic acid]	81.6 nM
O=C(O)c1cc(-c2cccc(Cl)c2)ns1 [R=3-Cl, X=H, 3-(3-chlorophenyl)-5-isothiazolecarboxylic acid]	334 nM
O=C(O)c1snc(-c2cccc(Cl)c2)c1I [R=3-Cl, X=I, 3-(3-chlorophenyl)-4-iodo-5-isothiazolecarboxylic acid]	903 nM
COc1ccc(-c2nsc(C(=O)O)c2N)cc1F [R=3-F, R^1=4-OCH3, 3-(3-fluoro-4-methoxyphenyl)-4-amino-5-isothiazolecarboxylic acid]	67.1 nM
Nc1c(-c2cccc(F)c2)nsc1C(=O)O [R=3-F, R^1=H, 3-(3-fluorophenyl)-4-amino-5-isothiazolecarboxylic acid]	1260 nM
O=C(O)c1snc(-c2cccc(F)c2)c1Cl [R=3-F, X=Cl, 3-(3-fluorophenyl)-4-chloro-5-isothiazolecarboxylic acid]	116 nM
COc1ccc(-c2nsc(C(=O)O)c2N)cc1OC [R=3-OCH3, R^1=4-OCH3, 3-(3,4-dimethoxyphenyl)-4-amino-5-isothiazolecarboxylic acid]	410 nM
COc1cc(OC)cc(-c2nsc(C(=O)O)c2N)c1 [R=3-OCH3, R^1=5-OCH3, 3-(3,5-dimethoxyphenyl)-4-amino-5-isothiazolecarboxylic acid]	89.2 nM
COc1cccc(-c2nsc(C(=O)O)c2N)c1 [R=3-OCH3, R^1=H, 3-(3-methoxyphenyl)-4-amino-5-isothiazolecarboxylic acid]	1160 nM
COc1cccc(-c2nsc(C(=O)O)c2Cl)c1 [R=3-OCH3, X=Cl, 3-(3-anisyl)-4-chloro-5-isothiazolecarboxylic acid]	108 nM
COc1cccc(-c2cc(C(=O)O)sn2)c1 [R=3-OCH3, X=H, 3-(3-anisyl)-5-isothiazolecarboxylic acid]	3740 nM

SMILES	IC50
COc1cccc(-c2nsc(C(=O)O)c2I)c1 [R=3-OCH3, X=I, 3-(3-anisyl)-4-iodo-5-isothiazolecarboxylic acid]	1720 nM
Nc1c(-c2ccc(Br)cc2)nsc1C(=O)O [R=4-Br, R^1=H, 3-(4-bromophenyl)-4-amino-5-isothiazolecarboxylic acid]	2760 nM
Nc1c(-c2ccc(C(F)(F)F)cc2)nsc1C(=O)O [R=4-CF3, R^1=H, 3-(4-trifluoromethylphenyl)-4-amino-5-isothiazolecarboxylic acid]	624 nM
Cc1ccc(-c2nsc(C(=O)O)c2N)cc1 [R=4-CH3, R^1=H, 3-(p-tolyl)-4-amino-5-isothiazolecarboxylic acid]	1200 nM
Cc1ccc(-c2nsc(C(=O)O)c2Cl)cc1 [R=4-CH3, X=Cl, 3-(4-tolyl)-4-chloro-5-isothiazolecarboxylic acid]	315 nM
Nc1c(-c2ccc(Cl)cc2)nsc1C(=O)O [R=4-Cl, R^1=H, 3-(4-chlorophenyl)-4-amino-5-isothiazolecarboxylic acid]	2750 nM
O=C(O)c1snc(-c2ccc(Cl)cc2)c1Cl [R=4-Cl, X=Cl, 3-(4-chlorophenyl)-4-chloro-5-isothiazolecarboxylic acid]	365 nM
O=C(O)c1cc(-c2ccc(Cl)cc2)ns1 [R=4-Cl, X=H, 3-(4-chlorophenyl)-5-isothiazolecarboxylic acid]	1960 nM
O=C(O)c1snc(-c2ccc(Cl)cc2)c1I [R=4-Cl, X=I, 3-(4-chlorophenyl)-4-iodo-5-isothiazolecarboxylic acid]	2740 nM
Nc1c(-c2ccc(F)cc2)nsc1C(=O)O [R=4-F, R^1=H, 3-(4-fluorophenyl)-4-amino-5-isothiazolecarboxylic acid]	1600 nM
O=C(O)c1snc(-c2ccc(F)cc2)c1Cl [R=4-F, X=Cl, 3-(4-fluorophenyl)-4-chloro-5-isothiazolecarboxylic acid]	202 nM
CCOc1ccc(-c2nsc(C(=O)O)c2N)cc1 [R=4-OC2 H5, R^1=H, 3-(4-ethoxyphenyl)-4-amino-5-isothiazolecarboxylic acid]	106 nM
CCCOc1ccc(-c2nsc(C(=O)O)c2N)cc1 [R=4-OC3 H7, R^1=H, 3-(4-propoxyphenyl)-4-amino-5-isothiazolecarboxylic acid]	86.2 nM
COc1ccc(-c2nsc(C(=O)O)c2N)cc1 [R=4-OCH3, R^1=H, 4-amino-3-(4-methoxyphenyl)-5-isothiazolecarboxylic acid]	559 nM
COc1ccc(-c2nsc(C(=O)O)c2Cl)cc1 [R=4-OCH3, X=Cl, 3-(4-anisyl)-4-chloro-5-isothiazolecarboxylic acid]	51.9 nM
COc1ccc(-c2cc(C(=O)O)sn2)cc1 [R=4-OCH3, X=H, 3-(4-anisyl)-5-isothiazolecarboxylic acid]	276 nM
CC(C)Oc1ccc(-c2nsc(C(=O)O)c2N)cc1 [R=4-OCH(CH3)2, R^1=H, 3-(4-isopropoxyphenyl)-4-amino-5-isothiazolecarboxylic acid]	68.3 nM
Nc1c(-c2ccccc2)nsc1C(=O)O [R=H, R^1=H, 3-phenyl-4-amino-5-isothiazolecarboxylic acid]	2130 nM
O=C(O)c1snc(-c2ccccc2)c1Cl [R=H, X=Cl, 3-phenyl-4-chloro-5-isothiazolecarboxylic acid]	225 nM
O=C(O)c1cc(-c2ccccc2)ns1 [R=H, X=H, 3-phenyl-5-isothiazolecarboxylic acid]	2340 nM
O=C(O)c1snc(-c2ccccc2)c1O [R=H, X=OH, 3-phenyl-4-hydroxy-5-isothiazolecarboxylic acid]	203 nM
